{"source": "patent US20040152666A1", "about": "“Methods of reducing complications associated with peritoneal dialysis in patients with diabetes obesity and/or hyperlipidemia” (priority 2002, published 2004)", "key": {"[1]": {"system": "human peritoneal mesothelial cells", "conditions": "in vitro, culture medium supplemented with NAG, within six hours (ref. 12); cited from earlier work"}, "rats": {"system": "rats", "experiment": "Acute peritoneal dialysis in rats with NAG-based or glucose-based dialysis fluid", "type": "in vivo, rat", "experimental": "Peritoneal transport kinetics as well as blood insulin and glucose levels were evaluated in rats during acute peritoneal dialysis. Peritoneal dialysis fluids tested in the studies described herein were prepared in the laboratory and sterilized by filtration. Electrolyte and buffer compositions of both solutions were identical, similar to those contained in commercially available fluids. Concentrations of the individual solutes were as follows (mmol/l): Na 132, Ca 1.75, Mg 0.75, Cl 102, lactate 35. Glucose or NAG were used as osmotic solutes, both in a concentration of 220 mmol/l. Osmolality of the glucose-based dialysis fluid was 478 mOsm/kg H20 and of the solution containing NAG 476 mOsm/kg H2O; pH of the studied fluids was 7.02 and 7.03, respectively.\nAcute peritoneal dialysis was performed in male Wistar rats (b.w.270-330 g) according to the methods described previously (see ref. 10 below). For 24 hours prior to the experiments, animals were given only drinking water and no food. At the beginning of the study, under ether anesthesia, blood samples were collected from the tail vein and thereafter 20 ml of the dialysis fluid was infused via a polyvinyl catheter (1.2 gauge; Vygon, Helsingborg, Sweden); the catheter was instantly removed after infusion. Thereafter the rats were transferred to individual cages, signs of anesthesia disappeared within 5 minutes. Dialysis fluid dwelled in the peritoneal cavity for 1 hour, 3 hours or 6 hours. 12 animals were studied at each time interval: 6 in the NAG group and 6 in the glucose group. During the dialysis animals were conscious with free access to drinking water but no food. At the end of the dwell time rats were again anesthetized with ether, blood samples were collected from the heart and then animals were sacrificed by exsanguination from heart. Afterwards the peritoneal cavity was opened and the dialysate was collected with a pipette. Dialysate volume was measured by weight. Blood and dialysate samples were centrifuged (1500 rpm for 10 minutes) and serum or dialysate supernatant were stored at −20° C. for further analysis. In dialysate samples drained after 6 hrs dwell cell count was determined in a Neubauer chamber.\nSerum and dialysate samples were analyzed for creatinine (enzymatic test, Analco, Warsaw) and total protein were analyzed using Lowry method (11). Sodium concentration in the unused dialysis fluid and dialysate was measured with flame photometry (Eppendorf, Germany). Glucose concentration in serum was measured with an enzymatic test (Sigma Chemical, St.Louis, Mo., U.S.A.). Insulin concentration in serum was measured with ELISA kit (Mercodia, Uppsala, Sweden). Hyaluronan concentration in the dialysate samples was measured with ELISA (Chugai, Japan). Sodium sieving and permeability coefficient for creatinine were calculated for exchanges with 1 hour dwell. Results are presented as mean±SD. Statistical analysis was performed with Mann-Whitney test for unpaired data. A p value less than 0.05 was considered significant."}, "[2]": {"conditions": "intraperitoneal infusion of radiolabeled NAG (ref. 19); cited from earlier work"}}}
{"smiles": "CC(=O)N[C@H]1C(O)O[C@H](CO)[C@@H](O)[C@@H]1O", "note": "(stereo partly shown) [NAG, N-acetylglucosamine]", "values": [{"measurement": "synthesis of hyaluronan", "setting": "[1]", "value": "increase within six hours synthesis of hyaluronan"}, {"measurement": "dialysate cell count (intraperitoneal inflammation)", "setting": "rats; rat, in vivo, ip", "value": "945±251", "unit": "cells/μl"}, {"measurement": "dialysate volume compared with glucose-based solution", "setting": "rats; rats, 1 and 3 hrs exchange", "value": "higher"}, {"measurement": "sodium sieving (D/D0)", "setting": "rats; rats, 1 hour exchange, mean±SD", "value": "0.955±0.034"}, {"measurement": "increase of blood insulin level after 3 hours dialysis", "setting": "rats; rats, 3 hours dialysis, mean±SD", "value": "4.5 ± 4.7", "unit": "pmol/L"}, {"measurement": "end dialysate volume", "setting": "rats; rats, 6 hour dwell, osmotic solute 220 mmol/l, 20 ml infused, mean±SD", "value": "34.5 ± 1.7", "unit": "mL"}, {"measurement": "peritoneal permeability to total protein, dialysate/serum ratio×1000 (D/S×1000)", "setting": "rats; rats, 6 hrs dwell, osmotic solute 220 mmol/l, mean±SD", "value": "9.7±2.5"}, {"measurement": "increase of blood glucose level", "setting": "rats; rats, after 1 hour dwell of NAG dialysis fluid", "value": 39, "unit": "%"}, {"measurement": "increase in blood insulin level, times weaker than with dialysis fluid containing glucose", "setting": "rats; rats, after 3 hours dialysis", "value": "about 12 times"}, {"measurement": "increase of blood glucose level", "setting": "rats; rats, after 3 hours dwell of NAG dialysis fluid", "value": 54, "unit": "%"}, {"measurement": "increase of blood glucose level", "setting": "rats; rats, after 6 hours dwell of NAG dialysis fluid", "value": 116, "unit": "%"}, {"measurement": "hyaluronan concentration in the dialysate", "setting": "rats; rats, dialysate after 6 hrs dwell, mean±SD", "value": "60.3 ± 7.8", "unit": "ng/mL"}, {"measurement": "blood glucose concentration, highest observed during dialysis", "setting": "rats; rats, osmotic solute 220 mmol/l, dwell 1, 3 or 6 hours, mean±SD", "value": "91 ± 9", "unit": "mg/dL"}, {"measurement": "increase of blood insulin level (maximal) during dialysis", "setting": "rats; rats, osmotic solute 220 mmol/l, mean±SD", "value": "5.0 ± 5.4", "unit": "pmol/L"}, {"measurement": "appearance of the tracer in the exhaled air", "setting": "[2]", "value": "about 25%"}, {"measurement": "appearance of the tracer in urine", "setting": "[2]", "value": "about 20%"}]}
